Measurements from US4388237A, “6(1-Piperazinyl), piperidino and (1(homopiperazinyl)11-cyanomethylene morphanthridines” (BASF Aktiengesellschaft, priority 1979, dated 1983).
Entries after “also recorded” stand apart in the source; their conditions may differ. Where a name gives a salt, the structure may show the parent alone.

Tests used:
Assay type in all cases: in vivo
female NMRI mice [1] = assay: Analgesic effect (D'Amour and Smith tail-flick method); settings: for Analgesic effect ED 100%: intraperitoneal, mice, dose lengthening tail-flick reaction time by 100%, 30 minutes after administration; for Analgesic effect R.A. (relative activity): relative to Clozapin (1.00); for Analgesic effect (in words): discussion of Table 1
Description: The analgesic effect is determined by means of the D'Amour and Smith (1941) tail-flick method. In this, the substances are administered intraperitoneally to groups of 10 female NMRI mice. The pain reaction is triggered 30 minutes after administration. The reaction time, until the tail is flicked out of the way after exposure to a focused light beam, is measured.

[2] = system: female Sprague-Dawley rats; assay: Apomorphine-antagonistic effect (jaw movements, mandibulogram); settings: for Apomorphine antagonism R.A. (relative activity): relative to Clozapin (1.00)
Description: 4. Apomorphine-antagonistic effect
Jaw motions are triggered in groups of 4-6 female Sprague-Dawley rats by subcutaneous administration of 1.5 mg of apomorphine/kg, and are recorded by means of implanted electrodes (Kubacki mandibulogram, 1978) .

female NMRI mice [3] = assay: Sedative effect (orientation hypermotility); settings: for Sedative effect R.A. (relative activity): relative to Clozapin (1.00); for Sedative effect (in words): discussion of Table 1
Description: The substances are administered orally to groups of 4×3 or 8×3 female NMRI mice. The orientation hypermotility induced by a new environment is determined photoelectrically, 30 minutes after the administration of the substances, for a period of 30 minutes.

female NMRI mice [4] = assay: Anti-cholinergic effect (protection against death from Physostigmin)
Description: 3. Anti-cholinergic effect
A lethal dose (0.825 mg/kg) of Physostigmin is administered subcutaneously to groups of 10 female NMRI mice. The test substances are administered orally 30 minutes before administering the Physostigmin.

SMILES	Analgesic effect ED 100% (female NMRI mice [1]) [mg/kg]	Apomorphine antagonism R.A. (relative activity) [2]	Sedative effect R.A. (relative activity) (female NMRI mice [3])	Analgesic effect R.A. (relative activity) (female NMRI mice [1])	other results
Cc1ccc2c(c1)N=C(N1CCN(C)CC1)c1ccccc1C2=CC#N (mixture of isomers) [13a cis-trans M, cis,trans-3-Methyl-11-cyanomethylene-6-(4-methylpiperazin-1-yl)-morphanthridine]	5.17				
Cc1ccc2c(c1)C(=CC#N)c1ccccc1C(N1CCN(C)CC1)=N2 (mixture of isomers) [13b cis-trans M, cis,trans-2-Methyl-11-cyanomethylene-6-(4-methyl-piperazin-1-yl)-morphanthridine]	10				
CCN1CCN(C2=Nc3ccccc3C(=CC#N)c3ccccc32)CC1 (mixture of isomers) [31 cis-trans M, cis,trans-11-Cyanomethylene-6-(4-ethyl-piperazin-1-yl)-morphanthridine]	> 10				
N#CC=C1c2ccccc2N=C(N2CCCNCC2)c2ccccc21 (mixture of isomers) [32 cis-trans M, cis,trans-11-Cyanomethylene-6-homopiperazin-1-yl-morphanthridine.HCl.H2 O]	46.4	< 0.08	> 0.22	0.04	
N#CC=C1c2ccccc2N=C(NCCN2CCCCC2)c2ccccc21 (mixture of isomers) [38 cis-trans M, cis,trans-11-Cyanomethylene-6-(2-piperidin-1-yl-ethylamino)-morphanthridine.1/2H2 O]	> 10	0.17	2.94		
C[N+]1([O-])CCN(C2=Nc3ccccc3C(=CC#N)c3ccccc32)CC1 (mixture of isomers) [67 cis-trans M, cis,trans-11-Cyanomethylene-6-(4-methyl-4-oxypiperazin-1-yl)-morphanthridine.2H2 O]	> 46.4	0.09	0.33	< 0.04	
CN1CCN(C2=Nc3ccccc3/C(=C/C#N)c3ccccc32)CC1 [1 cis-isomer, cis-11-cyanomethylene-6-(4-methylpiperazin-1-yl)-morphanthridine]	31.6				Anti-cholinergic effect (in words) (female NMRI mice [4]; discussion of Table 1, Physostigmin antagonism): approximately comparable anti-cholinergic effect
CN1CCN(C2=Nc3ccccc3C(=CC#N)c3ccccc32)CC1 [1 cis-trans M, cis- and trans-11-Cyanomethylene-6-(4-methyl-piperazin-1-yl)-morphanthridine]	46.4				ED50 (female NMRI mice [4]; Mus musculus, read-out: Anti-cholinergic effect ED 50%, oral, 30 minutes before Physostigmin 0.825 mg/kg subcutaneous, mice, dose protecting 50% of the animals against death): 6.26 mg/kg; Apomorphine-antagonistic effect (in words) ([2]; discussion of Table 1): somewhat weaker than that of Clozapin; Sedative effect (in words) (female NMRI mice [3]; listed as Example 1 (cis-trans mixture)): relatively strong sedative effects; also recorded: more strongly sedative; Analgesic effect (in words) (female NMRI mice [1]): not analgesically active
CN1CCN(C2=Nc3ccccc3/C(=C\C#N)c3ccccc32)CC1 [1 trans-isomer, trans-11-cyanomethylene-6-(4-methyl-piperazin-1-yl)-morphanthridine]	> 21.5				
Cc1ccc2c(c1)N=C(N1CCN(C)CC1)c1ccccc1/C2=C\C#N [13a cis-isomer, cis-3-methyl-11-cyanomethylene-6-(4-methyl-piperazin-1-yl)-morphanthridine]	0.74				Sedative effect (in words) (female NMRI mice [3]): responsible for the strong sedative and strong analgesic effects; Analgesic effect (in words) (female NMRI mice [1]): An analgesic effect is found; also recorded: responsible for the strong sedative and strong analgesic effects
Cc1ccc2c(c1)N=C(N1CCN(C)CC1)c1ccccc1/C2=C/C#N [13a trans-isomer, trans-3-methyl-11-cyanomethylene-6-(4-methylpiperazin-1-yl)-morphanthridine]	68.1				
CCN1CCN(C2=Nc3ccccc3/C(=C\C#N)c3ccccc32)CC1 [31 trans-isomer, trans-11-cyanomethylene-6-(4-ethyl-piperazin-1-yl)-morphanthridine]	> 46.4				
C[N+]1([O-])CCN(C2=Nc3ccccc3/C(=C/C#N)c3ccccc32)CC1 [67 cis-isomer, cis-11-cyanomethylene-6-(4-methyl-4-oxy-piperazin-1-yl)-morphanthridine]	> 46.4	< 0.08	0.26	< 0.04	
C[N+]1([O-])CCN(C2=Nc3ccccc3/C(=C\C#N)c3ccccc32)CC1 [67 trans-isomer, t rans-11-cyanomethylene-6-(4-methyl-4-oxy-piperazin-1-yl)-morphanthridine]	> 100	0.32	0.04	< 0.02	
CN1CCN(C2=Nc3cc(Cl)ccc3Nc3ccccc32)CC1 [Clozapin, reference compound]	2.08	1.00	1.00	1.00	
CN1CCN(C2=Nc3ccccc3Cc3ccccc32)CC1 [Perlapin, reference compound]		0.37	2.31	< 0.10	
